The source of these data is patent US8648105B2, “Diarylthiohydantoin compounds” (The Regents of the University of California, priority 2006, dated 2014).

Broadly, the logP is the decadic logarithm of the partition coefficient of the neutral form, usually between octanol and water. Read a low logP as a more hydrophilic compound.

The subject of one series is urogenital tract. Put plainly: Luciferase transgenic mice with testosterone pellet, urogenital tract weight and photon emission (FIG. 22). The conditions noted are these: castrated mice with testosterone pellet, 10 mg/kg per day, 14 days. Format: in vivo. As for the experimental part:
FIG. 22 presents results of an experiment conducted with wild type nontransgenic mice (WT), castrated luciferase transgenic mice (Cast), and non-castrated luciferase transgenic mice (Intact). Data are shown for castrated luciferase transgenic mice treated with an implanted testosterone pellet yielding 12.5 mg per kilogram body weight with a 90 day release period (T/Cast), and data are shown for non-castrated luciferase transgenic mice treated with an implanted testosterone pellet yielding 12.5 mg per kilogram body weight with a 90 day release period (Intact+T). […]. (A) Urogenital tract weight at 14 days. (B) Photon emission rate at 14 days. In all cases, a hormone refractory disease state was not induced.
[…]. Moreover, the higher the dose, the lower the PSA level. […]. The weight and rate of photon emission increased for both intact and castrated mice.

Series [1] deals with LNCaP hormone sensitive xenograft. Put plainly: LNCaP hormone sensitive xenograft model.
Protocol: Each set included 6 mice. The mice were treated with 10 mg/kg per day.
Series [2] concerns AR-overexpressed LNCaP xenograft tumors. Nature of the series: AR-overexpressed LNCaP xenograft model in castrated SCID mice. Format: in vivo. On the procedure: FIG. 7 is a graph of tumor size. AR overexpressing LNCaP cells were injected in the flanks of castrated SCID mice, subcutaneously. When tumors reached about 100 cubic mm, they were randomized into five groups. Each group had nine animals. […]. The tumors were measured three-dimensionally, width, length and depth, using a caliper.
FIG. 8 depicts experimental results of tumor size. At day 18, the animals were imaged via an optical CCD camera, 3 hours after last dose of treatment. A ROI was drawn over the tumor for luciferase activity measurement in photon/second. The right panels is a representation of the ROIs measurements.
Compounds of the invention are used to examine if the diaryihydantoin derivatives have in vivo effects on hormone refractory prostate cancer. First we examine this compound on xenograft tumors established from AR-overexpressed LNCaP cells. Engineered cells in Matrigel (Collaborative Biomedical) are injected subcutaneously into the flanks of the castrated male SCID mice. Tumor size is measured weekly in three dimensions using calipers. After xenograft tumors established (tumor size at least 40 mm^3), mice with tumors are randomized and treated with different doses of compounds orally once daily. The inhibitory effect on growth of AR-overexpressed LNCaP xenograft model is studied as follows. Mice with established LN-AR xenograft tumors are randomized and treated with indicated compounds orally once daily. Tumor size are measured by caliber.
All animal experiments were performed in compliance with the guidelines of the Animal Research Committee of the University of California at Los Angeles. Animals were bought from Taconic and maintained in a laminar flow tower in a defined flora colony. LNCaP-AR and LNCaP-vector cells were maintained in RPMI medium supplemented with 10% FBS. 10^6 cells in 100 μl of 1:1 Matrigel to RPMI medium were injected subcutaneously into the flanks of intact or castrated male SCID mice. Tumor size was measured weekly in three dimensions (length×width×depth) using calipers. Mice were randomized to treatment groups when tumor size reached approximately 100 mm^3. Drugs were given orally every day at 10 mg/kg and 50 mg/kg. To obtain pharmacodynamic readout, the animals were imaged via an optical CCD camera, 3 hours after last dose of the treatment. A ROI is drawn over the tumor for luciferase activity measurement in photon/second. The right panels were a representation of the ROIs measurements. […]

The test system of series [3] is hormone refractory LAPC4 xenograft. Nature of the series: Hormone refractory LAPC4 xenograft model. The series is classed as in vivo, mice. On the procedure:
Compounds of the invention are also tested in another xenograft model of hormone refractory prostate cancer, hormone refractory LAPC4. This model was established from passaging of hormone sensitive prostate cancer in castrated mice, which mimics the clinical progression of prostate cancer (2). […].

The nature of another series: LogP. Format: physicochemical.
The subject of another series is 1AR cell line. Nature of the series: Luciferase activity in the 1AR cell line. Format: cell-based. Conditions: 1.25 to 10 μmol. An excerpt:
(§1) NC4 differs from NC3 only in that an amino group is substituted for a hydroxyl group. […] The effect of NC3 and NC4 on luciferase activity in the 1AR cell line was studied by administering various compounds at concentrations ranging from 1.25 to 10 μmol and observing PSA levels. […] The effect of NC3 and NC4 on luciferase activity in the 4AR cell line was studied by administering various compounds at concentrations ranging from 1.25 to 10 μmol and observing luciferase activity. […] The effect of NC3 and NC4 on PSA levels in the LN/AR cell line was studied by administering various compounds at concentrations ranging from 1.25 to 10 μmol and observing luciferase activity.

The next series concerns 4AR cell line. Nature of the series: Luciferase activity in the 4AR cell line. The conditions noted are these: 1.25 to 10 μmol. Format: cell-based.
Text: as §1

In series [4] the target is T1, AR (Homo sapiens, UniProt P10275).
T1 sequence (P10275 1-920): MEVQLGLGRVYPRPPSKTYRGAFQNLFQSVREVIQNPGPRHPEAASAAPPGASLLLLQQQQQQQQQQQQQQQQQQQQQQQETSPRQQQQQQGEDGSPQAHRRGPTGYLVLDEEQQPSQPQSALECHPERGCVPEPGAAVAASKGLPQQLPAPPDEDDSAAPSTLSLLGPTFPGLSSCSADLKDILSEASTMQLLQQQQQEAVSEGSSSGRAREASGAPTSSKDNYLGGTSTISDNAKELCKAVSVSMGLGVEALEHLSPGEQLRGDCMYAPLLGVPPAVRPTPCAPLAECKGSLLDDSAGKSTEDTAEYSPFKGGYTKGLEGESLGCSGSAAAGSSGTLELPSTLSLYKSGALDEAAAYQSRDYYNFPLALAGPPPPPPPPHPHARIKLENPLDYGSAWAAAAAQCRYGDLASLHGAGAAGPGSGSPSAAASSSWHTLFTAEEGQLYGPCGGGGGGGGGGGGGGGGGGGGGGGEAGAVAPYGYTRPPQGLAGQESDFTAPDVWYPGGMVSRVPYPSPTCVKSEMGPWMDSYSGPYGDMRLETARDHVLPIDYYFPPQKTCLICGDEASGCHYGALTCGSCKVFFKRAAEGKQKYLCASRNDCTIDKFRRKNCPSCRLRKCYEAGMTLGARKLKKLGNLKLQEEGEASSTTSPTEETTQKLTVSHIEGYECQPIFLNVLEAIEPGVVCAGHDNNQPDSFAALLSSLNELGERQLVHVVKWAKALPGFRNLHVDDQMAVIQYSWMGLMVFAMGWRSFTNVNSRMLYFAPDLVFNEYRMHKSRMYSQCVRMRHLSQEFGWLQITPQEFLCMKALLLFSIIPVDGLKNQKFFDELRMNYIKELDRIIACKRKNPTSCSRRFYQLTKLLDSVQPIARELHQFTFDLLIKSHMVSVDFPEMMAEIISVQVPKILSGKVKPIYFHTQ
The series is classed as cell-based. Further details: Fold induction, AR response reporter. On the procedure: It is well established that PSA levels are indicators of AR activities in prostate cancer. […] The LNCaP-AR cells are a line of lymph node carcinoma of prostate cells transduced with a plasmid that makes express androgen receptors. […] After four days incubation, secreted PSA levels were assayed using PSA ELISA kits (American Qualex, San Clemente, Calif.)

The target of series [5] is T1, AR. Format: cell-based. Further details: Fold induction, AR response reporter. Conditions: LN-AR, absence of R1881. On the procedure: Activities of AR response reporter were measured.
For series [6], the system named is AR. The series is classed as cell-based. Conditions: FIG. 24. On the procedure:
The compounds were subjected to tests using an artificial AR response reporter system in a hormone refractory prostate cancer cell line. […] After two days of incubation, reporter activities were assayed.

A short description of series [7]: Pharmacokinetics, drug concentration in mouse serum/plasma by HPLC. The conditions noted are these: in vivo.
Protocol: Mice were divided into groups of three for each time points. Two mice were not treated with drug and two other mice were treated with vehicle solution. Each group was treated with 10 mg per kilogram of body weight.
The drug was dissolved in a mixture 1:5:14 of DMSO:PEG400: H20. (Vehicle solution) and was administered into mice through the tail vein. The animals are warmed under a heat lamp for approximately 20 minutes prior to treatment to dilate their tail vein. […] After drug administration, the animals were euthanized via CO2 inhalation at different timepoints: 5 nm, 30 nm, 2 h, 6 h, 16 h. Animals were immediately bleed after exposure to CO2 via cardiac puncture (1 ml BD syringe+27 G ⅝ needle).
The samples for HPLC analysis were prepared according to the following procedure:
Blood cells were separated from serum by centrifugation.
To 400 μl of serum were added 80 μl of a 10 μM solution of an internal standard and 520 μl of acetonitrile. Precipitation occurred.
The mixture was vortexed for 3 minutes and then placed under ultrasound for 30 minutes.
The solid particles were filtered off or were separated by centrifugation.
The filtrate was dried under an argon flow to dryness.
The next series deals with 3T3. Put plainly: Growth effect on 3T3 cells. The series is classed as cell-based. The conditions noted are these: 3T3 normal mouse fibroblast cell line.
A further series relates to SkBr3. Nature of the series: Growth effect on SkBr3 cells. Format: cell-based. The conditions noted are these: SkBr3 breast cancer cells.
The subject of the next series is MCF7. Nature of the series: Growth effect on MCF7 cells. Format: cell-based. The conditions noted are these: MCF7 breast cancer cells.
In series [8] the target is T2, glucocorticoid receptor (GR) (Homo sapiens, UniProt P04150).
T2 construct: expressed in transfected cells; host or cells: LNCaP cells
T2 sequence (P04150 1-777): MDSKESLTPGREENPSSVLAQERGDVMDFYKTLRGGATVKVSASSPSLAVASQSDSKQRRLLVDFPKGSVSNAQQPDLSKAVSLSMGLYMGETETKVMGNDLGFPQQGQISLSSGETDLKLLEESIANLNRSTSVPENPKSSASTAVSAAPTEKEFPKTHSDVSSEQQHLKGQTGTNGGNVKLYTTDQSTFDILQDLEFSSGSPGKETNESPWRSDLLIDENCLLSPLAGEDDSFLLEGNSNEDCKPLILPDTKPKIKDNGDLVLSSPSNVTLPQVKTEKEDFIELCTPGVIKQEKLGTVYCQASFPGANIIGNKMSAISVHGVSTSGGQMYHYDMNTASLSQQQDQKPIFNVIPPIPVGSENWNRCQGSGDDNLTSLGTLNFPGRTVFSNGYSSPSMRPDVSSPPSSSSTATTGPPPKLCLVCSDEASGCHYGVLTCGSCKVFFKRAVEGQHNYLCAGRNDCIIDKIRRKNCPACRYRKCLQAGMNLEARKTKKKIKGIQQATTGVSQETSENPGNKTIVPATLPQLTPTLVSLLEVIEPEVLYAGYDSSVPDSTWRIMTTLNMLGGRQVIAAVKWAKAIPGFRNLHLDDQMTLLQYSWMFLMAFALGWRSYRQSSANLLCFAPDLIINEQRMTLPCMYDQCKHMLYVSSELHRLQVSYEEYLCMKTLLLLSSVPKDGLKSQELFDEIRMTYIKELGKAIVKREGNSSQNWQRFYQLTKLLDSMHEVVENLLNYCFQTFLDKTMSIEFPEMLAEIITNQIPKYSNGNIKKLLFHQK
Put plainly: GR response reporter in LNCaP cells over expressing glucocorticoid receptor. The series is classed as cell-based.

A further series has as its system DU-145 cells. Put plainly: MTS growth assay in DU-145 cells. The series is classed as cell-based. The conditions noted are these: DU-145, lacks AR expression. (In general: Tetrazolium dyes change colour on reduction, which living cells bring about.)
The target of series [9] is T1, AR. Format: cell-based. Conditions: AR over expressed LNCaP, absence of R1881. Further details: Fold induction, AR response reporter.

SMILES strings stand for the structures. Entries after “also recorded” stand apart in the source; their conditions may differ.

In the case of `CC(O)(CS(=O)(=O)c1ccc(F)cc1)C(=O)Nc1ccc(C#N)c(C(F)(F)F)c1` (stereo not drawn) [Bicalutamide, N-[4-cyano-3-(trifluoromethyl)phenyl]-3-[(4-fluorophenyl)sulfonyl]-2-hydroxy-2-methylpropanamide, reference compound], the “urogenital tract weight and photon emission” value in the series with urogenital tract was “decrease in weight and photon emission”. In series [1] (10 mg/kg per day, FIG. 6), the “rate of tumor growth (tumor volume)” value is given as “slower than mice treated with vehicle solution”. For the same compound, the PSA levels result in [1] (FIG. 16, relative to vehicle solution) was “stayed the same or increased”. For the same compound, the “photon emission associated with luciferase activity” value in series [2] (FIG. 8, day 18, relative to vehicle) is “remained about the same or increased”. In series [2] (oral once daily, FIG. 7: 10 or 50 mg/kg, 18 days), the “tumor growth / tumor volume” value is recorded as “did not inhibit growth; also recorded: tumors continued to grow”. Also, the “growth and PSA expression” value in series [3] is “did not inhibit growth and PSA expression”. The compound further yielded a log partition coefficient (logP) in “LogP” of 2.91.
In the case of `CC1(C)C(=O)N(c2ccc(C#N)c(C(F)(F)F)c2)C(=S)N1c1ccc(O)cc1` [NC3, 4-[3-(4-hydroxyphenyl)-4,4-dimethyl-5-oxo-2-thioxoimidazolidin-1-yl]-2-trifluoromethylbenzonitrile], the “luciferase activity (comparison)” value in the series on 1AR cell line and in the series on 4AR cell line was “less than the luciferase activity upon exposure to NC4” each time. In addition, the “PSA level (comparison)” value at AR [4] (LN/AR cell line, 1.25 to 10 μmol) is given as “less than the PSA level upon exposure to NC4”.
In the case of `Cc1ccc(N2C(=S)N(c3ccc(C#N)c(C(F)(F)F)c3)C(=O)C23CCC3)cc1` [NC7, 4-(8-oxo-6-thioxo-5-(4-methylphenyl)-5,7-diazaspiro[3.4]oct-7-yl)-2-trifluoromethylbenzonitrile], the “agonistic activity on AR response reporter” value at AR [5] is “no agonistic activity”. Besides, the “IC50 (comparison)” value with AR [6] is reported as “much lower than the IC50 for bicalutamide”. The “pharmacokinetic behavior, residence time in blood” value in [7] was “metabolize fast”. The growth effect result in the series with 3T3, in the series on SkBr3 and in the series on MCF7 was “no growth effect” throughout. Further, the “effect on GR response reporter” value in series [8] is given as “no effect on GR”. Further, the growth inhibitory effect entry in the series with DU-145 cells is given as “no growth inhibitory effect”. For the same compound, the “agonistic activity on secreted PSA” value on AR [9] was “no agonistic activities”. For the same compound, the “rank by relative PSA level, most active to least active” value at AR [4] (500 nM) is recorded as “NC50>NC48>NC7>NC43>NC44>NC49>NC50>NC45>bicalutamide”. The “decrease in PSA level of LNCaP-AR cells (comparison)” value on AR [4] (1000 nM) was “greater decrease in PSA level of LNCaP-AR cells than NC43, NC44, and NC50”.
